{"source": "patent US12336986B2", "about": "“Treatment and prevention of ocular neurodegenerative disorder” (The Jackson Laboratory, priority 2015, dated 2025)", "key": {"[1]": {"system": "ganglion cell layer cells (GCL cells)", "experiment": "Whole retina explant culture (axotomy culture model), DAPI nuclei", "assay_type": "cell-based, mouse", "excerpt": "Mice were euthanized, eyes enucleated and placed immediately into ice-cold HBSS. Retinas were dissected from the eyes in HBSS on ice, flat-mounted with the ganglion cell layer up on a cell culture insert (Millipore), and submerged in tissue culture media containing Neurobasal-A, 1% penicillin-streptomycin (10000 U/mL), 1% glutamine (100×), 1% N-2 (100×) and 1% B-27 (50×) (all ThermoFisher Scientific).\nFor drug treated retinas tissue culture media was made as above and supplemented with one of the following compounds (all Sigma unless otherwise): β-NAD, NAM (PanReac AppliChem), β-NMN. Retinas were incubated in 6-well plates at 37° C. and 4% CO2 for 5 days before being fixed in 4% PFA and stained with DAPI. (For untreated “Day 0” controls, retinas were dissected and placed straight into 4% PFA.) Retinas were imaged on a Zeiss AxioObserver."}, "HIF-1α": {"system": "HIF-1α", "experiment": "HIF-1α induction (immunostaining, RNA-seq) in D2 retinas", "assay_type": "in vivo, mouse", "settings": "D2 mice, early glaucoma, NAM 550 mg/kg/day", "description": "(§1) For immunofluorescence staining, mice were euthanized by cervical dislocation, their eyes enucleated and placed in 4% PFA ON. Retinas were dissected and flat-mounted onto slides, permeabilized with 0.1% Triton-X for 15 mins, blocked with 2% BSA in PBS and stained ON at RT in primary antibody (see below for list of antibodies).\n(§2) After primary antibody incubation, retinas were washed 5 times in PBS, stained for 4 hrs at RT with secondary antibody. Slides were then washed a further 5 times with PBS, stained with DAPI for 15 mins, mounted with fluoromount, coverslipped and sealed with nail-polish.\n(§3) For retinal sections, eyes were cryoprotected in 30% sucrose ON, frozen in OCT and cryosectioned at 18 μm. Slides were warmed to room temperature and the procedure above was followed. Retinas were imaged on a Zeiss AxioObserver for low resolution counts. Retinal sections were imaged on a Leica SP8 far higher resolution images."}, "[2]": {"system": "retinal ganglion cells (RGCs)", "experiment": "RNA-sequencing of FAC sorted RGCs, differential gene expression", "assay_type": "in vivo, mouse", "settings": "for RGC gene expression changes (RNA-seq): D2 mice, NAM 550 mg/kg/day in drinking water from 6-month, 9-month RGCs", "description": "Prior to cell collection, all surfaces and volumes were cleaned with 70% ethanol and RNaseZap (ThermoFisher Scientific) solution followed by dH2O. Mice were euthanized, eyes enucleated and placed immediately into ice-cold HBSS. Retinas were dissected from the eyes (4- or 9-month of age, no axon degeneration confirmed by PPD staining, data not shown) in HBSS on ice and placed directly into 100 μL, of a custom HBSS (Gibco), dispase (5 U/mL) (Stemcell Technologies), DNase 1 (2000 U/mL) (Worthington Biochemical) and SUPERase (1 U/μL) (ThermoFisher Scientific) solution. All retinas were from eyes that had no glaucomatous axon degeneration by PPD staining and analysis (see optic nerve assessment below). Retinas were incubated for 20 mins at 37° C. and shaken at 350 RPM in an Eppendorf Thermomixer R followed by gentle trituration using a 200 μL pipette. Samples were blocked in 2% BSA, SUPERase (1 U/μL) in HBSS, and stained with conjugated antibodies against Cd11b, Cd11c, Cd34, Cd45.2, GFAP, Thy1.2 as well as DAPI. This cocktail allowed other retina cell types to be accurately removed during FACS.\nFACS was performed on a FACSAria (BD Biosciences). Thy1.2^+ (and negative for all other markers) RGCs were sorted into 300 μL buffer RLT+1% β-ME, vortexed and frozen at −80° C. until further processing.\n[…] RGC samples were defrosted on ice and homogenized by syringe in RLT Buffer (total volume 300 μL). Total RNA was isolated using RNeasy micro kits according to manufacturer's protocols (Qiagen) including the optional DNase treatment step, and quality was assessed using an Agilent 2100 Bioanalyzer. The concentration was determined using Ribogreen Assay (Invitrogen). […]\nLibrary size produced was analyzed using qPCR using the Library Quantitation kit/Illumina GA/ABI Prism (Kapa Biosystems). Libraries were barcoded, pooled, and sequenced 6 samples per lane on a HiSeq 2500 sequencer (illumina) giving a depth of 30-35 million reads per sample.\nSamples were subjected to quality control analysis by a custom quality control python script. Reads with 70% of their bases having a base quality score ≥30 were retained for further analysis. Read alignment was performed using TopHat v 2.0.7 (Kim et al., Genome Biol 14, R36, 2013) and expression estimation was performed using HTSeq (Anders et al., Bioinformatics 31, 166-169, 2015) with supplied annotations and default parameters against the DBA/2J mouse genome (build-mm10). […]\nDifferential gene expression analysis between groups was performed using edgeR v 3.10.5 (Robinson et al., Bioinformatics 26, 139-140, 2010) following, batch correction using RUVSeq, the removal of outlier samples and lowly expressed genes by removing genes with less than five reads in more than two samples. […]"}, "SNAP-25": {"system": "SNAP-25", "experiment": "Synapse loss (SNAP-25 staining) in D2 retinas", "assay_type": "in vivo, mouse", "settings": "D2 mice, NAM 550 mg/kg/day", "description": "as §1, §2, §3"}, "DBA/2J (D2) mice": {"system": "DBA/2J (D2) mice", "experiment": "Optic nerve assessment (PPD staining) and determination of glaucomatous damage in D2 mice", "assay_type": "in vivo, mouse", "settings": "for risk factor of developing glaucoma (nerves with severe glaucoma): D2 mice at 12 months, control 0.6", "quoted_text": "This diet has no effects on the ocular health of the mice.\nPPD stains the myelin sheath of all axons but darkly stains the axoplasm of only damaged axons.\nBriefly, intracranial portions of optic nerves were fixed in 4% PFA at RT for 48 hrs, processed and embedded in plastic. A segment of optic nerve from within a region up to 1 mm from the posterior surface of the sclera was sectioned (1 μm thick sections) and stained with PPD. Typically 30-50 sections are taken from each nerve.\nMultiple sections of each nerve were considered when determining damage level. Optic nerves were analyzed and determined to have one of 3 damage levels: • (1) No or early damage (NOE) less than 5% axons damaged and no gliosis. This level of damage is seen in age and sex matched non-glaucomatous mice and is not due to glaucoma."}, "dorsal root ganglion": {"system": "dorsal root ganglion", "settings": "U.S. Pat. No. 7,776,326; cited from earlier work"}, "PARP": {"system": "PARP", "experiment": "PARP activation (pan-PARP immunostaining) in D2 retinas", "assay_type": "in vivo, mouse", "settings": "NAM 550 mg/kg/day", "description": "as §1, §2, §3"}, "[3]": {"settings": "axotomized retinas in culture, 5 days"}, "[4]": {"settings": "RGCs, q<0.05, NAM 550 mg/kg/day"}}, "note": "Entries after “also recorded” stand apart in the source; their conditions may differ.", "data": [{"smiles": "NC(=O)c1cccnc1", "note": "[NAM, nicotinamide]", "values": [{"measurement": "nuclear diameter shrinkage (DAPI-labeled nuclei)", "setting": "[1]; axotomized D2 retinas in culture, 5 days post-axotomy, NAM 100 mM and 500 mM", "value": "most robust protection against nuclear shrinkage; also recorded: protects against cell shrinkage; also recorded: indistinguishable from uninjured, baseline controls"}, {"measurement": "ganglion cell layer cell death / cell density", "setting": "[1]; [3]", "value": "attractive dose-response effect"}, {"measurement": "protective effect in retina tissue culture", "setting": "[1]; [3]", "value": "robustly protected"}, {"measurement": "HIF-1α upregulation / transcriptional induction", "setting": "HIF-1α", "value": "limited; also recorded: lessens upregulation"}, {"measurement": "RGC gene expression changes (RNA-seq)", "setting": "[2]", "value": "prevented even the earliest molecular signs of glaucoma in the majority of treated eyes; also recorded: prevented the vast majority of age-related gene expression changes; also recorded: returned to normal; also recorded: molecularly similar to controls; also recorded: molecularly similar to both young and age-matched no glaucoma control RCGs; also recorded: prevents transcriptome imbalances and OXPHOS imbalances; also recorded: prevents age- and disease-related gene expression changes"}, {"measurement": "RGC gene expression changes (RNA-seq)", "setting": "[2]; listed as nicotinamide", "value": "more closely molecularly matched to young control mice"}, {"measurement": "number of DE genes, 4-month D2-Gpnmb+ vs. NAM", "setting": "[2]; [4]", "value": 83}, {"measurement": "number of DE genes, 9-month D2-Gpnmb+ vs. NAM", "setting": "[2]; [4]", "value": 4437}, {"measurement": "synapse loss in early glaucoma (SNAP-25 staining)", "setting": "SNAP-25", "value": "protected against early synapse loss; also recorded: prevents synapse loss"}, {"measurement": "risk factor of developing glaucoma (nerves with severe glaucoma)", "setting": "DBA/2J (D2) mice; high dose NAM 2,000 mg/kg/day", "value": 0.06}, {"measurement": "risk factor of developing glaucoma (nerves with severe glaucoma)", "setting": "DBA/2J (D2) mice; low dose NAM 550 mg/kg/day", "value": 0.36}, {"measurement": "protection against glaucoma compared to Wld^S alone", "setting": "DBA/2J (D2) mice; D2 mice bearing the Wld^S mutation, NAM 550 mg/kg/day", "value": "better protects against glaucoma than Wld^S alone; also recorded: significantly better than Wld^S alone"}, {"measurement": "protection from glaucomatous damage (no glaucoma)", "setting": "DBA/2J (D2) mice; D2 mice carrying the Wld^S mutation, NAM 550 mg/kg/day from 6 months", "value": "~95", "unit": "%"}, {"measurement": "treated eyes having no glaucomatous optic nerve damage", "setting": "DBA/2J (D2) mice; D2 mice, NAM 2000 mg/kg/d (NAM^Hi), 12 months of age", "value": 93, "unit": "%"}, {"measurement": "protective in glaucoma", "setting": "DBA/2J (D2) mice; D2 mice, NAM alone (550 mg/kg/day)", "value": "about 70%"}, {"measurement": "decrease in risk factor of developing glaucoma", "setting": "DBA/2J (D2) mice; D2 mice, high dose NAM 2,000 mg/kg/day", "value": 10, "unit": "fold"}, {"measurement": "drop in risk factor", "setting": "DBA/2J (D2) mice; D2 mice, low dose NAM 550 mg/kg/day", "value": "~2", "unit": "fold"}, {"measurement": "axonal degeneration after axotomy", "setting": "dorsal root ganglion", "value": "did not work to diminish axonal degeneration"}, {"measurement": "PARP activation / expression", "setting": "PARP", "value": "decreased PARP activation; also recorded: prevents PARP activation"}]}]}
